Assay results from US11078193B2 (priority 2014, dated 2021).

Assays:
HBV = experiment: anti HBV activity, HepG2.117 inducibly HBV producing cell line (Tet-off), intracellular HBV DNA by realtime PCR; type: cell-based; conditions: Hepatitis B virus, 72 h, HepG2.117 cells, 3 days of treatment
[1] = Cytotoxicity, HepG2 cells, Resazurin assay; type: cell-based; conditions: human
[2] = ATP based toxicity assay (ATPlite), HepG2 cell line; conditions: human, HepG2 cells, ATPlite (ATP levels)
Experimental: Alternatively, cytotoxicity was determined via an ATP-assay: The ATPlite kit from Perkin Elmer was used to assess compound cytotoxicity on the HepG2 cell line by determination of the ATP (adenosine triphosphate) levels. ATP is a marker for functional integrity and cell viability, because it is present in all metabolically active cells and any form of cell injury will result in a rapid decline in cellular ATP concentration. After compound incubation, 1 volume of ATPlite solution was added to the cells and the luminescence signal was measured.

Structure (SMILES) | EC50 (HBV) [µM] | CC50 at 4 days [1] [µM] | CC50 at 4 days [2] [µM]
Cc1cc(NC(=O)c2c(Cl)c(S(=O)(=O)N[C@H](C)C(C)(F)F)cn2C)cc(F)n1 [Compound 146, 3-chloro-4-[[(1R)-2,2-difluoro-1-methyl-propyl]sulfamoyl]-N-(2-fluoro-6-methyl-4-pyridyl)-1-methyl-pyrrole-2-carboxamide] | 0.03 | > 25 | > 25
Cc1cc(NC(=O)c2c(F)c(S(=O)(=O)N[C@H](C)C(C)(F)F)cn2C)cc(Cl)n1 [Compound 158, N-(2-chloro-6-methyl-4-pyridyl)-4-[[(1R)-2,2-difluoro-1-methyl-propyl]sulfamoyl]-3-fluoro-1-methyl-pyrrole-2-carboxamide] | 0.05 | > 25 | > 25
Cc1cc(NC(=O)c2c(F)c(S(=O)(=O)NC3(C)CC(F)(F)C3)cn2C)cc(F)n1 [Compound 134, 4-[(3,3-difluoro-1-methyl-cyclobutyl)sulfamoyl]-3-fluoro-N-(2-fluoro-6-methyl-4-pyridyl)-1-methyl-pyrrole-2-carboxamide] | 0.01 | > 25 | > 25
C[C@@H](NS(=O)(=O)c1cn(C)c(C(=O)Nc2ccnc(Br)c2F)c1Cl)C(F)(F)F [Compound 139, N-(2-bromo-3-fluoro-4-pyridyl)-3-chloro-1-methyl-4-[[(1R)-2,2,2-trifluoro-1-methyl-ethyl]sulfamoyl]pyrrole-2-carboxamide] | 0.02 | > 25 | > 25
Cn1cc(S(=O)(=O)NC2(C)CC(F)(F)C2)c(F)c1C(=O)Nc1cc(F)nc(F)c1 [Compound 132, 4-[(3,3-difluoro-1-methyl-cyclobutyl)sulfamoyl]-N-(2,6-difluoro-4-pyridyl)-3-fluoro-1-methyl-pyrrole-2-carboxamide] | 0.01 | > 25 | > 25
Cc1cc(NC(=O)c2c(F)c(S(=O)(=O)NC3(C(F)(F)F)CCC3)cn2C)cc(F)n1 [Compound 172, 3-fluoro-N-(2-fluoro-6-methyl-4-pyridyl)-1-methyl-4-[[1-(trifluoromethyl)cyclobutyl]sulfamoyl]pyrrole-2-carboxamide] | 0.01 | > 25 | > 25
C[C@@H](NS(=O)(=O)c1cn(C)c(C(=O)Nc2ccnc(Br)c2)c1Cl)C(F)(F)F [Compound 106, N-(2-bromo-4-pyridyl)-3-chloro-1-methyl-4-[[(1R)-2,2,2-trifluoro-1-methyl-ethyl]sulfamoyl]pyrrole-2-carboxamide] | 0.02 | > 25 | > 25
Cn1cc(S(=O)(=O)NC2CCN(CC(F)(F)F)CC2)c(F)c1C(=O)Nc1ccnc(Cl)c1 [Compound 217, N-(2-chloro-4-pyridyl)-3-fluoro-1-methyl-4-[[1-(2,2,2-trifluoroethyl)-4-piperidyl]sulfamoyl]pyrrole-2-carboxamide] | 0.46 | – | > 25
Cn1cc(S(=O)(=O)NC2(C(F)(F)F)COC2)c(F)c1C(=O)Nc1ccnc(Cl)c1 [Compound 198] | 0.09 | – | > 25
Cc1cc(NC(=O)c2c(F)c(S(=O)(=O)N[C@H](C)C(F)(F)F)cn2C)cc(Br)n1 [Compound 154, N-(2-bromo-6-methyl-4-pyridyl)-3-fluoro-1-methyl-4-[[(1R)-2,2,2-trifluoro-1-methyl-ethyl]sulfamoyl]pyrrole-2-carboxamide] | 0.08 | > 25 | > 25
Cn1cc(S(=O)(=O)NC2(C)CC(F)(F)C2)c(F)c1C(=O)Nc1ccnc(C#N)c1F [Compound 197, N-(2-cyano-3-fluoro-4-pyridyl)-4-[(3,3-difluoro-1-methyl-cyclobutyl)sulfamoyl]-3-fluoro-1-methyl-pyrrole-2-carboxamide] | 0.01 | – | > 25
Cn1cc(S(=O)(=O)NC2(C)CC(F)(F)C2)c(Cl)c1C(=O)Nc1cc(F)nc(F)c1 [Compound 115, 3-chloro-4-[(3,3-difluoro-1-methyl-cyclobutyl)sulfamoyl]-N-(2,6-difluoro-4-pyridyl)-1-methyl-pyrrole-2-carboxamide] | 0.006 | > 25 | > 25
Cn1cc(S(=O)(=O)NC2(C(F)(F)F)CC2)c(F)c1C(=O)Nc1cc(F)nc(F)c1 [Compound 193, N-(2,6-difluoro-4-pyridyl)-3-fluoro-1-methyl-4-[[1-(trifluoromethyl)cyclopropyl]sulfamoyl]pyrrole-2-carboxamide] | 0.009 | – | > 25
Cn1cc(S(=O)(=O)NC2(C)CC(F)(F)C2)c(F)c1C(=O)Nc1ccnc(C#N)c1 [Compound 53, N-(2-cyano-4-pyridyl)-4-[(3,3-difluoro-1-methyl-cyclobutyl)sulfamoyl]-3-fluoro-1-methyl-pyrrole-2-carboxamide] | 0.04 | > 25 | > 25
Cc1cc(NC(=O)c2c(F)c(S(=O)(=O)N[C@H](C)C(C)(F)F)cn2C)cc(F)n1 [Compound 160, 4-[[(1R)-2,2-difluoro-1-methyl-propyl]sulfamoyl]-3-fluoro-N-(2-fluoro-6-methyl-4-pyridyl)-1-methyl-pyrrole-2-carboxamide] | 0.01 | > 25 | > 25
Cn1cc(S(=O)(=O)NC(C)(C)C(F)(F)F)c(F)c1C(=O)Nc1ccnc(C#N)c1 [Compound 188, N-(2-cyano-4-pyridyl)-3-fluoro-1-methyl-4-[(2,2,2-trifluoro-1,1-dimethyl-ethyl)sulfamoyl]pyrrole-2-carboxamide] | 0.1 | – | > 25
Cn1cc(S(=O)(=O)NC2(C(F)(F)F)CC2)c(F)c1C(=O)Nc1ccnc(C#N)c1 [Compound 192, N-(2-cyano-4-pyridyl)-3-fluoro-1-methyl-4-[[1-(trifluoromethyl)cyclopropyl]sulfamoyl]pyrrole-2-carboxamide] | 0.02 | – | > 25
Cn1cc(S(=O)(=O)NC2(C(F)(F)F)CC2)c(F)c1C(=O)Nc1ccnc(Br)c1F [Compound 203, N-(2-bromo-3-fluoro-4-pyridyl)-3-fluoro-1-methyl-4-[[1-(trifluoromethyl)cyclopropyl]sulfamoyl]pyrrole-2-carboxamide] | 0.008 | – | > 25
Cn1cc(S(=O)(=O)NC(C)(C)C(F)(F)F)c(F)c1C(=O)Nc1cc(F)nc(F)c1 [Compound 189, N-(2,6-difluoro-4-pyridyl)-3-fluoro-1-methyl-4-[(2,2,2-trifluoro-1,1-dimethyl-ethyl)sulfamoyl]pyrrole-2-carboxamide] | 0.06 | – | > 25
Cn1cc(S(=O)(=O)NC2CCC2(F)F)c(F)c1C(=O)Nc1ccnc(Cl)c1 (stereo not shown) [Compound 174, N-(2-chloro-4-pyridyl)-4-[(2,2-difluorocyclobutyl)sulfamoyl]-3-fluoro-1-methyl-pyrrole-2-carboxamide] | 0.11 | – | > 25
Cc1cc(NC(=O)c2c(F)c(S(=O)(=O)N[C@H](C)C(F)(F)F)cn2C)cc(Cl)n1 [Compound 213, N-(2-chloro-6-methyl-4-pyridyl)-3-fluoro-1-methyl-4-[[(1R)-2,2,2-trifluoro-1-methyl-ethyl]sulfamoyl]pyrrole-2-carboxamide] | 0.05 | – | > 25
Cn1cc(S(=O)(=O)NC2(C(F)(F)F)COC2)c(F)c1C(=O)Nc1ccnc(C(F)F)c1F [Compound 208, N-[2-(difluoromethyl)-3-fluoro-4-pyridyl]-3-fluoro-1-methyl-4-[[3-(trifluoromethyl)oxetan-3-yl]sulfamoyl]pyrrole-2-carboxamide] | 0.04 | – | > 25
C[C@@H](NS(=O)(=O)c1cn(C)c(C(=O)Nc2cc(F)nc(Cl)c2)c1F)C(F)(F)F [Compound 215, N-(2-chloro-6-fluoro-4-pyridyl)-3-fluoro-1-methyl-4-[[(1R)-2,2,2-trifluoro-1-methyl-ethyl]sulfamoyl]pyrrole-2-carboxamide] | 0.006 | – | > 25
Cc1c(S(=O)(=O)N[C@H](C)C(F)(F)F)c(F)c(C(=O)Nc2ccnc(C(F)F)c2F)n1C [Compound 207, N-[2-(difluoromethyl)-3-fluoro-4-pyridyl]-3-fluoro-1,5-dimethyl-4-[[(1R)-2,2,2-trifluoro-1-methyl-ethyl]sulfamoyl]pyrrole-2-carboxamide] | 0.01 | – | > 25
Cn1cc(S(=O)(=O)NC(C)(C)C(F)(F)F)c(F)c1C(=O)Nc1ccnc(C(F)F)c1F [Compound 201, N-[2-(difluoromethyl)-3-fluoro-4-pyridyl]-3-fluoro-1-methyl-4-[(2,2,2-trifluoro-1,1-dimethyl-ethyl)sulfamoyl]pyrrole-2-carboxamide] | 0.03 | – | > 25
Cn1cc(S(=O)(=O)NC2(C(F)(F)F)COC2)c(F)c1C(=O)Nc1ccnc(Br)c1 [Compound 209, N-(2-bromo-4-pyridyl)-3-fluoro-1-methyl-4-[[3-(trifluoromethyl)oxetan-3-yl]sulfamoyl]pyrrole-2-carboxamide] | 0.09 | – | > 25
Cn1cc(S(=O)(=O)NC2(C(F)(F)F)COC2)c(F)c1C(=O)Nc1ccnc(Cl)c1F [Compound 212, N-(2-chloro-3-fluoro-4-pyridyl)-3-fluoro-1-methyl-4-[[3-(trifluoromethyl)oxetan-3-yl]sulfamoyl]pyrrole-2-carboxamide] | 0.06 | – | > 25
Cn1cc(S(=O)(=O)NC2(C)CC(F)(F)C2)c(Cl)c1C(=O)Nc1ccnc(C#N)c1F [Compound 162, 3-chloro-N-(2-cyano-3-fluoro-4-pyridyl)-4-[(3,3-difluoro-1-methyl-cyclobutyl)sulfamoyl]-1-methyl-pyrrole-2-carboxamide] | 0.02 | – | > 25
